According to patent publication US4146536A, “Nocardicin E and F, and process for production thereof” (Fujisawa Pharmaceutical Co., Ltd., priority 1975, dated 1979):
Converted amounts (≈) assume the structure as drawn.

Key:
[1] = system: Escherichia coli NIHJ JC-2; assay: Minimum Inhibitory Concentration (M.I.C.), serial agar dilution; assay type: cell-based; conditions: NIHJJC2, Mueller Hinton agar, inoculum 10^6 cells/ml, 37° C., 20 hours
Protocol: (§1) Minimum Inhibitory Concentration (M.I.C.)
(§2) M.I.C. test was conducted by a usual serial agar dilution method, using Mueller Hinton agar (Inoculum: 10^6 cells/ml) which was incubated at 37° C. for 20 hours. M.I.C. value is expressed as the minimum concentration of the Nocardicin E or F (mcg/ml) which inhibits growth of the microorganism.

[2] = system: Pseudomonas aeruginosa NCTC10490; assay: as above; assay type: cell-based; conditions: Mueller Hinton agar, inoculum 10^6 cells/ml, 37° C., 20 hours
Protocol: as §1, §2

[3] = system: Bacillus subtilis ATCC6633; assay: as above; assay type: cell-based; conditions: Mueller Hinton agar, inoculum 10^6 cells/ml, 37° C., 20 hours
Protocol: as §1, §2

[4] = system: Staphylococcus aureus 209P; assay: as above; assay type: cell-based; conditions: Mueller Hinton agar, inoculum 10^6 cells/ml, 37° C., 20 hours
Protocol: as §1, §2

Solubility = assay type: physicochemical
[5] = aqueous alkaline solution (Nocardicin E: e.g. aqueous ammonia, aqueous sodium hydroxide solution)

SMILES | MIC [1] | MIC [2] | MIC [3] | MIC [4] | Solubility (Solubility; C2 H5 OH) | Solubility (Solubility; CH3 COCH3) | Solubility (Solubility; CH3 COOC2 H5) | Solubility (Solubility; CH3 OH) | Solubility (Solubility; CHCl3) | Solubility (Solubility; [5]) | Solubility (Solubility; dimethylsulfoxide) | Solubility (Solubility; pyridine)
O=C(NC1CN(C(C(=O)O)c2ccc(O)cc2)C1=O)/C(=N\O)c1ccc(O)cc1 (stereo not drawn) [Nocardicin E] | > 400 µg/mL | 12.5 µg/mL (≈ 31.3 µM) | > 400 µg/mL | > 400 µg/mL | Sparingly soluble | Insoluble | Insoluble | Sparingly soluble | Insoluble | Highly soluble | Highly soluble | Highly soluble
O=C(NC1CN(C(C(=O)O)c2ccc(O)cc2)C1=O)/C(=N/O)c1ccc(O)cc1 (stereo not drawn) [Nocardicin F] | > 400 µg/mL | 100 µg/mL (≈ 250 µM) | > 400 µg/mL | > 400 µg/mL | Sparing soluble | Insoluble | Insoluble | Sparing soluble | Insoluble | Highly soluble | Highly soluble | Highly soluble
